Experimental data published in patent US7465744B2, “Triazole compounds and the therapeutic use thereof” (Abbott GmbH & Co. KG, priority 2003, dated 2008).
Where a name gives a salt, the structure may show the parent alone.

How the values were obtained:
[1] = target: T1, human dopamine D3 receptors (Homo sapiens, UniProt P35462); assay: Receptor binding study, dopamine D3 receptor ([125I]-iodosulpride displacement); conditions: membranes from HEK-293 cells, 0.1 nM [125I]-iodosulpride
T1 construct: expressed in transfected cells
Method: (§1) The substance to be tested was dissolved either in methanol/Chremophor® (BASF-AG) or in dimethyl sulfoxide and then diluted with water to the desired concentration.
(§2) The mixture (0.250 ml) is composed of membranes from ˜10^6 HEK-293 cells with stably expressed human dopamine D3 receptors, 0.1 nM [^125I]-iodosulpride and incubation buffer (total binding) or with addition of test substance (inhibition plot) or 1 μM spiperone (nonspecific binding). Triplicate mixtures were carried out.
The incubation buffer contained 50 mM Tris, 120 mM NaCl, 5 mM KCl, 2 mM CaCl2, 2 mM MgCl2 and 0.1% bovine serum albumin, 10 μM quinolone, 0.1% ascorbic acid (prepared fresh each day). The buffer was adjusted to pH 7.4 with HCl.
(§3) After incubation at 25° C. for 60 minutes, the mixtures were filtered under vacuum through Wathman GF/B glass fiber filters using a cell harvester. The filters were transferred by a filter transfer system into scintillation vials. After addition of 4 ml of Ultima Gold® (Packard), the samples were shaken for one hour and then the radioactivity was calculated in a beta counter (Packard, Tricarb 2000 or 2200CA). The cp values were converted into dpm by means of a standard quench series with the aid of the instrument's own program.
(§4) Evaluation of the inhibition plots took place by iterative nonlinear regression analysis using the statistical analysis system (SAS) similar to the “LIGAND” program described by Munson and Rodbard.

[2] = target: T2, human dopamine D2 (L) receptors (long isoform) (Homo sapiens, UniProt P14416); assay: Receptor binding study, dopamine D2(L) receptor ([125I]-iodospiperone displacement); conditions: selectivity ratio D2(L) versus D3 binding
T2 construct: expressed in transfected cells
Method: as §1
as §2, with “(1” for “(0.250”, “was” for “is”, “D2 (L) receptors (long isoform) and 0.01” for “D3 receptors, 0.1”, “[^125I]-iodospiperone” for “[^125I]-iodosulpride”, “haloperidol” for “spiperone”
The incubation buffer contained 50 mM Tris, 120 mM NaCl, 5 mM KCl, 2 mM CaCl2, 2 mM MgCl2 and 0.1% bovine serum albumin. The buffer was adjusted to pH 7.4 with HCl.
as §3, §4

[3] = Investigation of the cerebral availability and the oral bioavailability; type: in vivo, male Wistar rats; conditions: rat; for bioavailability / Kp: male, Wistar; for bioavailability: plasma, AUCoral/AUCiv, oral 10 mg/kg, intravenous 2 mg/kg, read-out: F (bioavailability); for Kp: brain/plasma, oral, 10 mg/kg of body weight, read-out: AUCbrain/AUCplasma; for cmax (brain) / AUCbrain: oral (gavage) 10 mg/kg, brain tissue; for AUCbrain: trapezoidal method
Method: The test substances were administered to male Wistar rats in parallel experiments in each case intravenously (tail vein, 2 mg/kg of body weight) and orally (gavage, 10 mg/kg of body weight). The test compound was dissolved in water with up to 4% by volume of DMSO and/or ethanol for intravenous administration and suspended in 4% by weight aqueous hydroxypropyl-cellulose solution for oral administration. After various times (intravenous: 5 min, 15 min, 30 min, 2 h, 8 h and 24 h; oral: 15 min, 30 min, 2 h, 8 h and 24 h) after the administration, a blood sample or brain tissue were taken from 2 rats in each case. The concentration of the test compound in the blood plasma and in the brain tissue (plasma and brain) was determined in a conventional way by coupled liquid chromatography/mass spectroscopy or by HPLC. The area under the concentration-time plot for brain (AUCbrain) and for plasma (AUCiV, AUCoral) were by means of the trapezoidal method from the results obtained [((tn−tn-1)×(cn+cn-1)/2) calculated, in which tn is the time of determination and tn-1 is the preceding time of determination, and cn and cn-1 are respectively the concentrations at time tn and tn-1]. The maximum concentration of the active ingredients in brain tissue cmax brain, the value of AUCbrain, and the AUCbrain/AUCplasma ratio is a measure of the cerebral availability of the active substance. In addition, the bioavailability F of the active ingredient was calculated in a manner known per se from the data (AUCoral/AUCiv in %).

T2 sequence (P14416 whole entry, canonical isoform): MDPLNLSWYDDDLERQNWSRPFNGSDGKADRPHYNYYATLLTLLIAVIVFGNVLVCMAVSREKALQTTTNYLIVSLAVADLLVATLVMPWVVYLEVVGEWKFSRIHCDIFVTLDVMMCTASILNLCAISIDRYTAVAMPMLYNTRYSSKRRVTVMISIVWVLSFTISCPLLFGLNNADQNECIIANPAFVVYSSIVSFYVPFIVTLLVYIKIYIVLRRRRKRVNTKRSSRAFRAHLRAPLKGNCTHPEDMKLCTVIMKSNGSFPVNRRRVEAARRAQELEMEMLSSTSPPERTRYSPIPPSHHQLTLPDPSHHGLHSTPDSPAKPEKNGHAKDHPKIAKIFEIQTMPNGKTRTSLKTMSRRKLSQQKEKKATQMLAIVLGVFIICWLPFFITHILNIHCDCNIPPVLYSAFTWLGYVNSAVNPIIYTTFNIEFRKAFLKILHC
T1 sequence (P35462 whole entry): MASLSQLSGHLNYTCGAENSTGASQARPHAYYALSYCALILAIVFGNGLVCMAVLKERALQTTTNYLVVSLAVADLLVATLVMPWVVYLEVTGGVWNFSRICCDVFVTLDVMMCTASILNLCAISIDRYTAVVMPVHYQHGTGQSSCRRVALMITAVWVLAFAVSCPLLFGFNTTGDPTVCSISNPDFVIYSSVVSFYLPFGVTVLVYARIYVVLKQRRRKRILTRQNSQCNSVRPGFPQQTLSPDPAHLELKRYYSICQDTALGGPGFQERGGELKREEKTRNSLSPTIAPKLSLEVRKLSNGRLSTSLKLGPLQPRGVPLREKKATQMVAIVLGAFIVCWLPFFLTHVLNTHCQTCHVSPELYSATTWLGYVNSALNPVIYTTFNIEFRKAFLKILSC

SMILES	Ki [1]	Ki (D2)/Ki (D3) [2]	also measured
Cn1cccc1-c1nnc(SCCCN2CCc3ccc(C(=O)c4cccc(F)c4)cc3C2)n1C [Ia′-60, 7-(3-Fluorobenzoyl)-2-(3-{[4-methyl-5-(1-methyl-1H-pyrrol-2-yl)-4H-1,2,4-triazol-3-yl]thio}-propyl)-1,2,3,4-tetrahydroisoquinoline]	30.3 nM	37	
CC(=O)c1ccc2c(c1)CN(CCCSc1nnc(-c3cccn3C)n1C)CC2 [Ia′-4, 7-Acetyl-2-(3-{[4-methyl-5-(1-methyl-1H-pyrrol-2-yl)-4H-1,2,4-triazol-3-yl]thio}propyl)-1,2,3,4-tetrahydroisoquinoline]	4.5 nM	80	
Cn1cccc1-c1nnc(SCCCN2CCc3ccc(C(=O)c4ccccc4)cc3C2)n1C [Ia′-12, 7-Benzoyl-2-(3-{[4-methyl-5-(1-methyl-1H-pyrrol-2-yl)-4H-1,2,4-triazol-3-yl]thio}propyl)-1,2,3,4-tetrahydroisoquinoline]	10.7 nM	90	bioavailability [3]: 10%; Kp [3]: 0.2; cmax (brain) [3]: 130 ng/g; AUCbrain [3]: 306 ng·h/g
CC(=O)c1ccc2c(c1)CN(CCCSc1nnc(-c3cccnc3)n1C)CC2 [Ia′-39, 7-Acetyl-2-{3-[(4-methyl-5-pyridin-3-yl-4H-1,2,4-triazol-3-yl)thio]propyl}-1,2,3,4-tetrahydroisoquinolines]	18.8 nM	37	
CCC(=O)c1ccc2c(c1)CN(CCCSc1nnc(-c3cc4ccccc4s3)n1C)CC2 [Ia′-57, 1-[2-(3-{[5-(1-Benzothien-2-yl)-4-methyl-4H-1,2,4-triazol-3-yl]thio}propyl)-1,2,3,4-tetrahydroisoquinolin-7-yl]propan-1-one]	2.6 nM	59	
Cn1c(SCCCN2CCc3ccc(C(=O)c4ccccc4)cc3C2)nnc1-c1ccco1 [Ia′-3, 7-Benzoyl-2-(3-{[5-(2-furyl)-4-methyl-4H-1,2,4-triazol-3-yl]thio}propyl)-1,2,3,4-tetrahydroisoquinoline]	19.3 nM	40	
CCC(=O)c1ccc2c(c1)CN(CCCSc1nnc(-c3cccn3C)n1C)CC2 (as salt: hydrochloride) [Ia′-15, 2-(3-{[4-Methyl-5-(1-methyl-1H-pyrrol-2-yl)-4H-1,2,4-triazol-3-yl]thio}propyl)-7-propionyl-1,2,3,4-tetrahydroisoquinoline]			melting point: 181 to 184 °C
Cn1c(SCCCN2CCc3ccc(C(=O)c4cccc(F)c4)cc3C2)nnc1-c1ccccc1 [Ia′-68, 7-(3-Fluorobenzoyl)-2-{3-[(4-methyl-5-phenyl-4H-1,2,4-triazol-3-yl)thio]propyl}-1,2,3,4-tetrahydroisoquinolines]	14.9 nM	56	
CCC(=O)c1ccc2c(c1)CN(CCCSc1nnc(-c3ccccc3)n1C)CC2 [Ia′-25, 2-{3-[(4-methyl-5-phenyl-4H-1,2,4-triazol-3-yl)thio]propyl}-7-propionyl-1,2,3,4-tetrahydroisoquinoline]	4.4 nM	90	
Cn1c(SCCCN2CCc3ccc(C(=O)c4cccc(F)c4)cc3C2)nnc1-c1cnccn1 [Ia′-58, 7-(3-Fluorobenzoyl)-2-{3-[(4-methyl-5-pyrazin-2-yl-4H-1,2,4-triazol-3-yl)thio]propyl}-1,2,3,4-tetrahydroisoquinoline]	25.5 nM	39	
CCC(=O)c1ccc2c(c1)CN(CCCSc1nnc(-c3cccn3C)n1C)CC2 [Ia′-15, 2-(3-{[4-Methyl-5-(1-methyl-1H-pyrrol-2-yl)-4H-1,2,4-triazol-3-yl]thio}propyl)-7-propionyl-1,2,3,4-tetrahydroisoquinoline]	4.4 nM	103	bioavailability [3]: 100%; Kp [3]: 0.3; cmax (brain) [3]: 686 ng/g; AUCbrain [3]: 2903 ng·h/g
Cn1c(SCCCN2CCc3ccc(C(=O)c4ccccc4)cc3C2)nnc1-c1ccsc1 [Ia′-18, 7-Benzoyl-2-{3-[(4-methyl-5-thien-3-yl-4H-1,2,4-triazol-3-yl)thio]propyl}-1,2,3,4-tetrahydroisoquinoline]	22.4 nM	48	
Cn1c(SCCCN2CCc3ccc(C(=O)c4cccc(F)c4)cc3C2)nnc1-c1cccnc1 [Ia′-63, 7-(3-Fluorobenzoyl)-2-{3-[(4-methyl-5-pyridin-3-yl-4H-1,2,4-triazol-3-yl)thio]propyl}-1,2,3,4-tetrahydroisoquinolines]	40.3 nM	38	
Cn1c(SCCCN2CCc3ccc(C(=O)c4ccccc4)cc3C2)nnc1-c1ccncc1 [Ia′-1, 7-Benzoyl-2-{3-[(4-methyl-5-pyridin-4-yl-4H-1,2,4-triazol-3-yl)thio]propyl}-1,2,3,4-tetrahydroisoquinoline]	11.4 nM	133	
Cn1c(SCCCN2CCc3ccc(C(=O)c4ccccc4)cc3C2)nnc1-c1ccsc1 (as salt: hydrochloride) [Ia′-18, 7-Benzoyl-2-{3-[(4-methyl-5-thien-3-yl-4H-1,2,4-triazol-3-yl)thio]propyl}-1,2,3,4-tetrahydroisoquinoline]			melting point: 140 °C
Cn1c(SCCCN2CCc3ccc(C(=O)c4ccccc4)cc3C2)nnc1-c1ccccc1 [Ia′-19, 7-Benzoyl-2-{3-[(4-methyl-5-phenyl-4H-1,2,4-triazol-3-yl)thio]propyl}-1,2,3,4-tetrahydroisoquinolines]	8.6 nM	149	
CCC(=O)c1ccc2c(c1)CN(CCCSc1nnc(-c3ccc[nH]3)n1C)C2.Cl [Ib′-65, 1-[2-(3-{[4-Methyl-5-(1H-pyrrol-2-yl)-4H-1,2,4-triazol-3-yl]thio}propyl)-2,3-dihydro-1H-isoindol-5-yl]propan-1-one hydrochloride]	40 nM	49	
CCC(=O)c1ccc2c(c1)CN(CCCSc1nnc(-c3ccccc3)n1C)C2.Cl [Ib′-25, 1-(2-{3-[(4-Methyl-5-phenyl-4H-1,2,4-triazol-3-yl)thio]propyl}-2,3-dihydro-1H-isoindol-5-yl)propan-1-one hydrochloride]	21.4 nM	126	
Cn1c(SCCCN2CCc3ccc(C(=O)c4cccc(F)c4)cc3C2)nnc1-c1ccccc1 (as salt: hydrochloride) [Ia′-68, 7-(3-Fluorobenzoyl)-2-{3-[(4-methyl-5-phenyl-4H-1,2,4-triazol-3-yl)thio]propyl}-1,2,3,4-tetrahydroisoquinolines]			melting point: 147 °C
